The target in one experiment is INDY (Homo sapiens, UniProt Q86YT5). The experiment in a line: Fatty acid synthesis (FAS) assay from 14C-citrate in HepG2 cells. The format is cell-based. The settings on record: 14C-citrate into fatty acids. The method, then: To test the functional activity of selected compounds and to bridge between the in vitro assay for citrate uptake to the physiological relevant lipid accumulation in liver cells a further functional cell assay was performed. This assay measured the effect of selected compounds on the citrate mediated fatty acid synthesis in hepatocytes.
Sequence of INDY (Q86YT5 whole entry): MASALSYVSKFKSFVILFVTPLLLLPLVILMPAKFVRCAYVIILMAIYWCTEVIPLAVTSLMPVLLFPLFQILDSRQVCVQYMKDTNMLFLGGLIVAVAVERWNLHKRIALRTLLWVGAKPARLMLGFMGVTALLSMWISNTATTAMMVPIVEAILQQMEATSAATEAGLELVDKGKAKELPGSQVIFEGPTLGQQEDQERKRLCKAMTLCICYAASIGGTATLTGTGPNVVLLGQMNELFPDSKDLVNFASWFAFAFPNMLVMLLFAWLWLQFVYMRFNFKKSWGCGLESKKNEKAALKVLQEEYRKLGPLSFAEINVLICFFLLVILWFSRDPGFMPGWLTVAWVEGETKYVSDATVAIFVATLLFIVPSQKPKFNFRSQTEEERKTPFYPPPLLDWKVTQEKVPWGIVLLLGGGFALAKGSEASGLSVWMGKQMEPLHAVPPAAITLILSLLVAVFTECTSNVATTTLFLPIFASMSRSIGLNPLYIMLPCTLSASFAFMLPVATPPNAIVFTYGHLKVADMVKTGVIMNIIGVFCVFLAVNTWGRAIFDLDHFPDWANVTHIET
Fatty acid synthesis (FAS) assay in HepG2: The principle of the assay is to measure the generation of ^14C-labelled fatty acids after uptake of ^14C labelled citrate into HepG2 cells. HepG2 cells were seeded into white clear-bottom 96-well plates (50,000/well) coated with collagen and incubated at 37° C. for 16-24 hours. After that plates were washed once with 100 μl PBS (+CaCl2+MgCl2) and 40 μl assay medium ([…] containing 11 mM glucose, 10 mM HEPES and 1 nM Insulin) per well was added. Test substances in assay medium were added ([…], 0.5% DMSO) and incubated for 20 min. After that 10 μl assay medium containing ^14C-citrate (final concentration 50 nM) and PrestoBlue reagent (1× final concentration; Life Technologies) were added and incubated for 60 min (37° C., 5% CO2). Cell viability was measured (Safire microplate reader, ex: 560/em: 590) and plates were incubated for another 30 min. Medium was removed by inverting the plate and cells were washed once with 100 μl ice-cold PBS. Cells were lysed with 50 μl lysis buffer (100 mM NaOH, 0.1% Triton X-100) and plate was sealed with Tape Pads and vortexed. For the saponification reaction plates were incubated for 16-24 hours at 80° C. Seals were removed and 200 μl […] was added for neutralisation of the pH. 150 μl from each well was transferred into the corresponding wells of a 96-well CytoStarT plate (Perkin Elmer) and sealed with TopSeal A (Perkin Elmer). Plates were incubated for 4 h at 70° C. and for 1 h at room temperature in the dark. Signal of ^14C radioactivity was measured (TopCount NXT scintillation counter, 1 min/well). As a positive control 5 mM citrate or 40 μM C75 (Sigma, C5490) was applied.

A further experiment has as its target T1, GLT-1 (Homo sapiens, UniProt P43004).
T1 construct: host or cells: HEK293 (virus made in GP293 packaging cells)
The experiment is described as follows: 3H-glutamate uptake counter assay in HEK293 cells overexpressing human GLT-1. The format is cell-based. As for the experimental part: The compound was obtained by screening of a library containing more than 50,000 lead-like compounds and fragments. The library was tested using a functional citrate uptake assay with HEK293 cells overexpressing recombinant human INDY. The following hit confirmation was conducted in the same assay system. To confirm the activity of selected compounds on the target INDY another cell assay was conducted. In this assay system citrate uptake was measured using HepG2 cells which endogenously express INDY. Furthermore selectivity of selected compounds was tested for two other transporters in different assay systems. The first transporter was the glutamate transporter GLT-1 tested in a glutamate uptake assays using HEK293 cells overexpressing recombinant human GLT-1. The second transporter was the glucose transporter GLUT1 tested in a glucose uptake assay using Huh-7 cells which endogenously express GLUT1. Compounds were considered to be selective with an at least 5-fold higher activity for INDY than for the other two transporters.
Cells were maintained in cell medium using cell culture grade flasks (CellSTACK Corning, 500 cm2 dishes or T175 depending on cell number). The selection antibiotic and G418 (800 μg/ml) was added during cultivation but not for seeding into assay plates. For splitting, cells were washed with PBS (w/o Ca2+, Mg2+, phenol red) and detached with Trypsin/EDTA. Throughout cultivation cells were kept sub-confluent. Detached cells (50,000 cells/well) were seeded in 96-well plates (white, clear bottom from Corning #655098) and incubated over night before usage in the assay. The following media were used. For HEK293 cells expressing INDY MEM (PAA)+10% FCS+1×P/S+2 mM L-Gln; for HEK293 cells expressing GLT-1 DMEM (Gibco)+10% FCS+400 µg/ml G418; for Huh7 cells DMEM (Gibco)+10% FCS+2 mM L-Gin (+1×P/S); for HepG2 cells MEM (PAA, Cat # E15-024)+10% FCS+2 mM L-Gin+1×NEAA+1 mM Na-Pyruvat
The following assay buffers for the particular uptake reaction were used. Citrate uptake buffer: 120 mM NaCl, 5.4 mM KCl, 0.8 mM MgSO4, 5 mM glucose, 1.8 mM CaCl2, 25 mM Hepes, 25 mM MES, pH 6.5. Glutamate uptake buffer: HBSS, 1 mM CaCl2, 1 mM MgCl2, 20 mM Hepes pH 7.4. Glucose uptake buffer: 25 mM Hepes+25 mM MES pH 7.4, 120 mM NaCl, 5.4 mM KCl, 1.8 mM CaCl2, 0.8 mM MgSO4.
As a counter assay, Glutamate uptake by the GLT-1 transporter was used. The principle of the assay is to measure the uptake of ^3H labelled glutamate into HEK cells, which overexpress human GLT-1.
The generation of a GLT-1 cell line was performed as follows: human GLT11 isoform sv1 cDNA (Origene # RC223924) was cloned into vector pFB-Neo-CMV-hGLT1 using QIAfilter Plasmid Midi Kit (Qiagen). Virus was generated in GP293 packaging cells (transfection of plasmid with Lipofectamine 2000+OptiMEM). For transfection into HEK cells GP293, supernatant containing virus was passed through a 0.45 micron sterile filter and DEAE-dextran was added at […] final concentration. The solution was used to transfect HEK293 cells at 37° C., 8.5% CO2. After 24 h selection marker G418 at 400 μg/ml was added and cultivation medium performed in DMEM 10% FBS.
The assay was performed in a 96-well format using repeated washing steps, cell lysis and addition of scintillation fluid. Assay buffer was HBSS, 1 mM CaCl2, 1 mM MgCl2, […] pH 7.4. Cells were seeded into white clear-bottom 96-well plates (50,000/well) in the presence of Poly-D-Lysine and incubated at 37° C. for 16-24 hours. Subsequently the plates were washed once with assay buffer using automated washing/LS 405 Selectors, BioTek ending with a buffer volume of 40 μl. Then 5 μl of compound solution in assay buffer was added and incubated for 20 min at 37° C. in cell incubator, HERA cell Heraeus. Afterwards 10 μl of substrate 3H-Glu (3 nM) were added and incubated for another 20 min at 37° C. in cell incubator, HERAcell. Then the plates were washed once with 200 μl cold assay buffer and 150 μl scintillation fluid was added. […]

The text below walks through data of US20200087258A1, “INHIBITOR OF CITRATE TRANSPORTER AND THEIR USE IN THERAPY” (Eternygen GmbH, priority 2017, published 2020).

T1 sequence (P43004 whole entry): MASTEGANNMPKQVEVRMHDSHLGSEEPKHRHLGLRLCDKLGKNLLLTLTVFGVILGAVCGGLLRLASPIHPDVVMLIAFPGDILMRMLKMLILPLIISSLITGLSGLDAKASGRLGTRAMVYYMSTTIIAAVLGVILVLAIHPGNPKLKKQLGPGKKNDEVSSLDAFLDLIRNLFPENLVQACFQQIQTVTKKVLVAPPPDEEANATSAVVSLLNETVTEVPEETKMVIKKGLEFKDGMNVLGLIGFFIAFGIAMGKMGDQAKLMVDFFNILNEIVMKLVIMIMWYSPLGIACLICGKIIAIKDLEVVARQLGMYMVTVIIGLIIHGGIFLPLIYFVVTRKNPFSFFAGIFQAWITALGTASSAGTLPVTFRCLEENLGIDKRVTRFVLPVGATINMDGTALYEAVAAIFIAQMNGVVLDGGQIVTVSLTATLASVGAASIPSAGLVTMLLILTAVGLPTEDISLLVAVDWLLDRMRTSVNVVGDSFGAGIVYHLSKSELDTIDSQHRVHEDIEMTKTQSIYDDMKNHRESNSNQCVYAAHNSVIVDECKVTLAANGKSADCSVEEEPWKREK

Turning to `O=C(NCc1ccccc1F)C1CCN(S(=O)(=O)/C=C/c2ccccc2)CC1` [Example 5], the figures for the IC50 on INDY and against GLT-1 were 1300 nM and above 50000 nM, respectively.
The like results for `CC(C)(C)c1ccc(S(=O)(=O)N2CCC(C(=O)NCc3ccccc3F)CC2)cc1` [Example 12, 1-(4-tert-butylbenzenesulfonyl)-N-[(2-fluorophenyl)methyl]piperidine-4-carboxamide] were, in that order, 600 nM and above 20000 nM.
The like results for `O=C(NCc1ccccc1F)C1CCN(S(=O)(=O)c2ccc(C(F)(F)F)cc2)CC1` [Example 25, N-[(2-fluorophenyl)methyl]-1-[4-(trifluoromethyl)benzenesulfonyl]piperidine-4-carboxamide] were, in that order, 400 nM and above 20000 nM.
Taken in the same sequence, the figures for `O=C(NCc1ccccc1F)C1CCN(S(=O)(=O)c2cc(Cl)cc(Cl)c2)CC1` [Example 44, 1-(3,5-dichlorobenzenesulfonyl)-N-[(2-fluorophenyl)methyl]piperidine-4-carboxamide] were 30 nM and above 20000 nM.
On to `COc1ccccc1CNC(=O)C1CN(S(=O)(=O)c2ccc(C(C)(C)C)cc2)C1` [Example 50, 1-(4-tert-butylbenzenesulfonyl)-N-[(2-methoxyphenyl)methyl]azetidine-3-carboxamide], for which the IC50 was 6200 nM against INDY and above 20000 nM on GLT-1.
Taken in the same sequence, the figures for `O=C(NCc1ccccn1)C1CCN(S(=O)(=O)c2cc(Cl)cc(Cl)c2)CC1` [Example 55, 1-(3,5-dichlorobenzenesulfonyl)-N-[(pyridin-2-yl)methyl]piperidine-4-carboxamide] were 600 nM and above 20000 nM.
Taken in the same sequence, the figures for `O=C(NCc1ccccn1)C1CCN(S(=O)(=O)c2ccc(C(F)(F)F)cc2)CC1` [Example 57, N-[(pyridin-2-yl)methyl]-1-[4-(trifluoromethyl)benzenesulfonyl]piperidine-4-carboxamide] were 2500 nM and above 20000 nM.
The like results for `O=C(NCc1ccccn1)C1CCN(S(=O)(=O)c2ccc(S(F)(F)(F)(F)F)cc2)CC1` [Example 86, 1-[4-(pentafluoro-lambda6-sulfanyl)benzenesulfonyl]-N-[(pyridin-2-yl)methyl]pipendine-4-carboxamide] were, in that order, 400 nM and above 20000 nM.
For `O=C(NCc1ccccc1CO)C1CCN(S(=O)(=O)c2cc(Cl)cc(Cl)c2)CC1` [Example 87, 1-(3,5-dichlorobenzenesulfonyl)-N-{[2-(hydroxymethyl)phenyl]methyl}piperidine-4-carboxamide], the IC50 was 600 nM at INDY and above 20000 nM against GLT-1.
The like results for `O=C(NCc1ccccn1)C1CCN(S(=O)(=O)c2cc(Cl)cc(C3CC3)c2)CC1` [Example 101, 1-(3-chloro-5-cyclopropylbenzenesulfonyl)-N-[(pyridin-2-yl)methyl]piperidine-4-carboxamide] were, in that order, 200 nM and above 20000 nM.
